Patent publication US10670605B2, “Cysteine reactive probes and uses thereof” (The Scripps Research Institute, priority 2015, dated 2020)
Counter-ions that a name gives are not always drawn.

Experiments:
Assay in all cases: isoTOP-ABPP of compound-treated primary human T cells
Type in all cases: cell-based
[1] = target: Cys residues in primary human T cells (Homo sapiens, UniProt P46109); conditions: CRKL C249 (P46109)
[2] = target: T1, Cys residues in primary human T cells (Homo sapiens, UniProt Q13045); conditions: FLU Protein flightless-1 homolog C46 (Q13045)
T1 sequence (Q13045 1-1269): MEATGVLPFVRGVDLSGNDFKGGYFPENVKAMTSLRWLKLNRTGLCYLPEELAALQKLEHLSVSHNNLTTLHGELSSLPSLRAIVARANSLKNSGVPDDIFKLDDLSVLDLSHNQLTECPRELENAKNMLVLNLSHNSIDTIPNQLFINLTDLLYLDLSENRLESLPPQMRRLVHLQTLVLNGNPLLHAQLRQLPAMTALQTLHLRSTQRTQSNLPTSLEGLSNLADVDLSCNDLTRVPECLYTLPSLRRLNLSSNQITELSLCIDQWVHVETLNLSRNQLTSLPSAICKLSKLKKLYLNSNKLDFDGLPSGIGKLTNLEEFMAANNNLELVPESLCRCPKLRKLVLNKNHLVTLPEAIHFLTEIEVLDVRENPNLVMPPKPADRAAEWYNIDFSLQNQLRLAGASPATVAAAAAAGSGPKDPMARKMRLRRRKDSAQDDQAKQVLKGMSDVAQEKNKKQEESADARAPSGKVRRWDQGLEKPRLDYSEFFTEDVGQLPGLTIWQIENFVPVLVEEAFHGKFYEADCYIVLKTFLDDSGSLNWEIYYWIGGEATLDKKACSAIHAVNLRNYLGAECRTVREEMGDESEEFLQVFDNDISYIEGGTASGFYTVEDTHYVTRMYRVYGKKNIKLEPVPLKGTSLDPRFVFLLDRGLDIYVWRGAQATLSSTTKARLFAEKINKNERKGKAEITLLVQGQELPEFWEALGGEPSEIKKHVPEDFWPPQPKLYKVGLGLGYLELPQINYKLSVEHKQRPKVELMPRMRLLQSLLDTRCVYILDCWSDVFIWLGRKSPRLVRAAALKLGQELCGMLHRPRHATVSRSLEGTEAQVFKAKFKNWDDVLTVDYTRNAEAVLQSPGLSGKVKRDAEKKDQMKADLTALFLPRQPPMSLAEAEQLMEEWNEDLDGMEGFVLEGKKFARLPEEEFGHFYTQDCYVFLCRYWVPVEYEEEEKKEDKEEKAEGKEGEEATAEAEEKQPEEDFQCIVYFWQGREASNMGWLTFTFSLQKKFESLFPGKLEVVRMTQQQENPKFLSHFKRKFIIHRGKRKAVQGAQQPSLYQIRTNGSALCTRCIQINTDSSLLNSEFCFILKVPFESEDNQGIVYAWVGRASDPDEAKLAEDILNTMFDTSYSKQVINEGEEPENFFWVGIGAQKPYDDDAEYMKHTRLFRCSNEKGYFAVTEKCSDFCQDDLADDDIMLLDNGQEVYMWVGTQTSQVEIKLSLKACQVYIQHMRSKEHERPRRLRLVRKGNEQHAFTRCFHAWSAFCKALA

[3] = target: Cys residues in primary human T cells (Homo sapiens, UniProt Q8N0Z8); conditions: PUSL1 C292 (Q8N0Z8); DMF 50 μM 4h
[4] = target: Cys residues in primary human T cells (Homo sapiens, UniProt Q93009); conditions: USP7 C315 (Q93009)
[5] = target: T2, Cys residues in primary human T cells (Homo sapiens, UniProt Q9UL40); conditions: ZNF346 C68 (Q9UL40)
T2 sequence (Q9UL40 1-294): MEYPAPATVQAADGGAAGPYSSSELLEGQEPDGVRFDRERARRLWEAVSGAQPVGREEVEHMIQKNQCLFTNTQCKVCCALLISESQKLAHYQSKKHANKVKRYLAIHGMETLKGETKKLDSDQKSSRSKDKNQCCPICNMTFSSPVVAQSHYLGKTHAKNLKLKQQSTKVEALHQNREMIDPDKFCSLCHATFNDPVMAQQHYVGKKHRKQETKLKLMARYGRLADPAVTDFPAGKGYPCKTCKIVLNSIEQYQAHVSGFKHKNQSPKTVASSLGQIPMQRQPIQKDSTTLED

Sequence of Cys residues in primary human T cells (Homo sapiens, UniProt P46109) (P46109 whole entry): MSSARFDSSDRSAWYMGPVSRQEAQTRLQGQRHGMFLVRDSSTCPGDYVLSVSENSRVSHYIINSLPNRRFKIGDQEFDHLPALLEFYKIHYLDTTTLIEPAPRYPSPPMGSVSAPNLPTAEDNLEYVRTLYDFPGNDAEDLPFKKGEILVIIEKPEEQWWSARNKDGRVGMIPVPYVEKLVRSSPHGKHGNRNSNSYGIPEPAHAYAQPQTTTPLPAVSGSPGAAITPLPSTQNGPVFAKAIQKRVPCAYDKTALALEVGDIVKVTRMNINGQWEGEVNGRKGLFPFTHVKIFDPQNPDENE
Sequence of Cys residues in primary human T cells (Homo sapiens, UniProt Q93009) (Q93009 whole entry): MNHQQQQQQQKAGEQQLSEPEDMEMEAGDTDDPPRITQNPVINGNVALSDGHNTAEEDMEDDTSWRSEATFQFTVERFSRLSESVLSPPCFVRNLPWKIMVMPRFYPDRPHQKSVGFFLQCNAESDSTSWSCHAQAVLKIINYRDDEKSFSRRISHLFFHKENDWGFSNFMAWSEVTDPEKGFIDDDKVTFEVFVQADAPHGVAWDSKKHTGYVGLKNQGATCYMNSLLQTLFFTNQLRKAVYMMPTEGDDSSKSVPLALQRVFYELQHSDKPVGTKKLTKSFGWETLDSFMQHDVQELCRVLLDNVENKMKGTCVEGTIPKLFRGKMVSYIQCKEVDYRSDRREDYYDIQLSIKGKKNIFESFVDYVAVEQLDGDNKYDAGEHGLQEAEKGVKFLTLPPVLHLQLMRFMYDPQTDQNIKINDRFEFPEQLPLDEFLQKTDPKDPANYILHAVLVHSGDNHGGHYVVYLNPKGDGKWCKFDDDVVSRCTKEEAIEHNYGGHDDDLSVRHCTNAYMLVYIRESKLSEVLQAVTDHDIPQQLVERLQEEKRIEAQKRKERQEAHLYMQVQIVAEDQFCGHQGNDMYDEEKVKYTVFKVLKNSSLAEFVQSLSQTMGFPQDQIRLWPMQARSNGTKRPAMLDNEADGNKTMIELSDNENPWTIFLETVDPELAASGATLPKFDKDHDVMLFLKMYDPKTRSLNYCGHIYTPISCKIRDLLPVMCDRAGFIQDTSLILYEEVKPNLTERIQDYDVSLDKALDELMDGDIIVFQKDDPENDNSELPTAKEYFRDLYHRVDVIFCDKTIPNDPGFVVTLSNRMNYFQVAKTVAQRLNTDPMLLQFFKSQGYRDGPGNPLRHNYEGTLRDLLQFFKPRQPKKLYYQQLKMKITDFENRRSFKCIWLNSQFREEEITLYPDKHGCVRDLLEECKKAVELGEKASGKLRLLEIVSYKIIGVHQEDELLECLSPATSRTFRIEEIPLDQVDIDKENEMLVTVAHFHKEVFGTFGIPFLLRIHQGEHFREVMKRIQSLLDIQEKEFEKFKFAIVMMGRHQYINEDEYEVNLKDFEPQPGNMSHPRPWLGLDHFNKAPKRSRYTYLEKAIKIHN
Sequence of Cys residues in primary human T cells (Homo sapiens, UniProt Q8N0Z8) (Q8N0Z8 whole entry): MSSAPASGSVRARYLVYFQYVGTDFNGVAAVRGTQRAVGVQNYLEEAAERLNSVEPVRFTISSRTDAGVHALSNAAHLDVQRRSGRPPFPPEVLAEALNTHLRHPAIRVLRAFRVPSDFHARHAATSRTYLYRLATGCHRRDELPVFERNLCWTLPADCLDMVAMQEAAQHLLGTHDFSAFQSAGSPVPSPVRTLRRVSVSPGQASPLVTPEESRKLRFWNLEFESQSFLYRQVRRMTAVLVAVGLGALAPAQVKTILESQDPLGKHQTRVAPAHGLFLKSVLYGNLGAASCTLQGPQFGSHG

## COC(=O)/C=C/C(=O)OC [DMF, dimethyl fumarate]
[1]; DMF 10 μM 4h
  R value (DMSO/DMF): 1.38
[1]; DMF 50 μM 1h
  R value (DMSO/DMF): 2.21
[1]; DMF 50 μM 2h
  R value (DMSO/DMF): 3.21
[1]; DMF 50 μM 4h
  R value (DMSO/DMF): 4.86
[2]; DMF 10 μM 4h
  R value (DMSO/DMF): 1.55
[2]; DMF 50 μM 1h
  R value (DMSO/DMF): 2.05
[2]; DMF 50 μM 2h
  R value (DMSO/DMF): 3.57
[2]; DMF 50 μM 4h
  R value (DMSO/DMF): 4.5
[3]
  R value (DMSO/DMF): 4.68
[4]; DMF 10 μM 4h
  R value (DMSO/DMF): 1.9
[4]; DMF 50 μM 1h
  R value (DMSO/DMF): 5.33
[4]; DMF 50 μM 2h
  R value (DMSO/DMF): 14.06
[5]; DMF 10 μM 4h
  R value (DMSO/DMF): 1.98
[5]; DMF 50 μM 1h
  R value (DMSO/DMF): 2.5
[5]; DMF 50 μM 2h
  R value (DMSO/DMF): 3.91
[5]; DMF 50 μM 4h
  R value (DMSO/DMF): 4.6
